Results as given in patent US8729048B2, “Methods and materials for assessing responsiveness to PARP inhibitors and platinating agents” (Mayo Foundation for Medical Education and Research, priority 2011, dated 2014).

Experiments:
[1] = system: DNA-PK substrates (DNA-PKcs Thr2609, Histone H2AX Ser139) in PEO1 cells; test: Immunoblotting for phosphorylation of DNA-PK substrates; format: cell-based; conditions: 72 hours
Description: FIG. 2. DNA-PK is activated following PARP inhibitor exposure in PEO1 cells. (A) Western blots for poly(ADP-ribose) polymer (pADPr) and phosphorylation of DNA-PK substrates (DNA-PKcs autophosphorylation at Thr^2609 and Histone H2AX at Ser^139) in PEO1 cells following 72 hours exposure to increasing concentrations of ABT-888 (0, 0.625, 1.25, 2.5, 5, 10, 20, and 40 μM). Hsp90, total DNA-PKcs, and Histone H1 are used as loading controls. (B) Phosphorylation of DNA-PK substrates after treatment for 72 hours with diluent (0.2% DMSO, lanes 1 and 4), 500 nM DNA-PK inhibitor AZ12594248 (DNA-PKi, lanes 2 and 5), or 5 μM ATM inhibitor KU55933 (ATMi, lanes 3 and 6) alone (lanes 1-3) or in combination with 20 μM ABT-888 (lanes 4-6). (C) Quantitation of cells positive for phospho-H2AX foci in PEO1 and PEO4 cells, following treatment with DMSO, 500 nM DNA-PKi, 20 μM ABT-888 (ABT), ABT-888 and DNA-PKi, 50 μM Etoposide (Etop), or 5 Gy ionizing radiation (IR). Cells were exposed to ABT-888 and/or DNA-PKi for 72 hours, etoposide for 1 hour, or allowed to recover for 1 hour after IR. Results are reported as mean±SEM of 3 independent experiments. (D) Confocal images of PEO1 cells treated as in […]. Phospho-Ser^139-H2AX is shown in green, phospho-Thr^2609-DNA-PKcs in red, and Hoechst 33258 in blue.
Cells were washed twice with calcium- and magnesium-free Dulbecco's phosphate-buffered saline (PBS) and solubilized in 6 M guanidine hydrochloride containing 250 mM Tris-HCl, pH 8.5 at 20° C., 10 mM EDTA, 1% (v/v) 2-mercaptoethanol, and 1 mM freshly added phenylmethylsulfonyl fluoride. After preparation for electrophoresis as described elsewhere (Kaufmann et al., Blood, 89:2098-2104 (1997)), aliquots containing 50 μg of protein (determined by the bicinchoninic acid method—S10) were separated on SDS-polyacrylamide gels containing 8% (w/v) acrylamide, electrophoretically transferred to nitrocellulose, and probed with immunological reagents as described elsewhere (Kaufmann, Anal. Biochem., 296:283-286 (2001)). […]

[2] = system: BRCA2-deficient PEO1 cells; test: Clonogenic assay, PEO1; format: cell-based
Description: FIG. 5. NHEJ is a major contributor to PARP inhibitor effects in BRCA2-deficient cells. (A) Western blots showing knockdown of Ku80 in PEO1 and PEO4 cells. (B) Clonogenic survival of PEO1 and PEO4 cells from (A), which were treated with the indicated ABT-888 concentration for 72 hours, washed, and allowed to form colonies. (C) Western blots following treatment with siRNA targeting luciferase (control), Ku80, PARP1, or both Ku80 and PARP1. (D) Clonogenic viability of PEO 1 and PEO4 cells from (C). Following knockdown, cells were plated onto triplicate plates and allowed to form colonies. (E) Clonogenic survival of PEO1 cells following Artemis knockdown. After treatment with the indicated siRNA, plates were treated with indicated concentration of ABT-888 for 72 hours, washed, and allowed to form colonies. Inset, Western blots showing knockdown using luciferase (control) or Artemis siRNAs in PEO1 cells. (F) Clonogenic survival of PEO1 and PEO4 cells treated for 72 hours with ABT-888 in combination with diluent or 500 nM DNA-PKi. All results are reported as means of triplicate plates±SEM, and are representative of 3 independent experiments.
FIG. 13. DNA-PK inhibition diminishes the lethality of multiple PARP inhibitors in PEO1 cells. (A) Representative clonogenic plates after PEO1 cells were treated with ABT-888 (0, 5, or 20 μM) with or without 500 nM DNA-PKi. (B, C) Bar graphs comparing clonogenic survival of PEO1 cells exposed to two PARP inhibitors with or without 500 nM DNA-PKi. The PARP inhibitors used for these assays are ABT-888 (B) and AZD2281/olaparib (C). Results are reported as mean±SEM of triplicate plates.
FIG. 18. Artemis knockdown confers resistance to PARP inhibition and cisplatin in BRCA2-deficient/mutant cells. Clonogenic survival assays of PEO1 shRNA lines continuously exposed to ABT-888 (A) or cisplatin (B), or exposed to ionizing radiation (C). (D-F) Clonogenic survival assays of CAPAN1 shRNA lines exposed to ABT-888 (D), cisplatin (E), or exposed to ionizing radiation (F).
Colony formation assays were performed on siRNA-transfected PEO1 and PEO4 cells 48 hours after the second transfection. Cells were trypsinized and plated at 750 cells/plate in triplicate 60-mm dishes containing medium A, allowed to grow 10-14 days, and stained with Coomassie Brilliant Blue. Colonies containing ≧50 cells were scored manually. To assess methyl methanesulfonate (MMS) sensitivity, PEO1 or PEO4 cells were incubated for 48 hours after the second siRNA treatment, plated onto 60-mm dishes, allowed to adhere for 4 hours, exposed to the indicated concentration of MMS (Sigma-Aldrich) for 1 hour, washed with sterile RPMI 1640, and allowed to grow into colonies in medium A. For drug treatment, cells (without siRNA) were allowed to adhere for 4-6 hours, then treated with the indicated concentrations of ABT-888 and/or AZ12594248 for 72 hours. Following drug treatment, cells were washed with drug-free RPMI 1640, cultured for 10-14 days in medium A, and stained. For HCC1937 and HCC1937/BRCA1 cells, a similar procedure was used with several changes: 1000 cells were plated in medium B, and treatment was continuous for 16-20 days. M059J and M059J+DNA-PKcs were plated at 1000 cells per plate in medium C and treated for 48 hours. GM16666 and 16667 were plated at 1000 cells per plate in medium D and treated for 48 hours.

## C[C@]1(c2nc3c(C(N)=O)cccc3[nH]2)CCCN1 [ABT-888]
[1]; ABT-888 0-40 μM
  phosphorylation of DNA-PKcs at Thr2609 and H2AX at Ser139: phosphorylated in a dose-dependent manner
[2]; PEO1 cells, 72 hours
  clonogenic survival: decreased the clonogenic survival
[2]; PEO1 cells, Artemis siRNA, 72 hours
  clonogenic survival with ABT-888 after siRNA depletion of Artemis: reversed the lethality
[2]; PEO1 cells, Ku80 siRNA, 72 hours
  clonogenic survival with ABT-888 after Ku80 knockdown: markedly enhanced the survival
[2]; PEO1 shRNA lines, continuous exposure
  clonogenic sensitivity after stable Artemis knockdown: conferred resistance

## CCN1CCN(CC(=O)Nc2ccc(-c3cccc4c(=O)cc(N5CCOCC5)oc34)c3sc4ccccc4c23)CC1 [AZ 12594248]
[1]; with 20 μM ABT-888, 500 nM DNA-PKi or 5 μM ATMi
  effect on ABT-888-induced phosphorylation of DNA-PKcs and H2AX: prevented the ABT-888-induced phosphorylation of DNA-PKcs and H2AX
[2]; PEO1 cells, 500 nM DNA-PKi
  effect of co-administration on AZD2281 clonogenic lethality: diminished the effects
[2]; PEO1 cells, 500 nM DNA-PKi, 72 hours
  effect of co-administration on ABT-888 clonogenic lethality: diminished the effects
